Data as given in ChEMBL document CHEMBL4837183, “Antiproliferative Bufadienolides from the Bulbs of Drimia altissima” (2021).

Tests used:
Type in all cases: functional
SN12C = assay: Growth inhibition of human SN12C cells measured after 48 hrs by SRB assay
Malme-3M = assay: Growth inhibition of human Malme-3M cells measured after 48 hrs by SRB assay
MDA-MB-231 = assay: Growth inhibition of human MDA-MB-231 cells measured after 48 hrs by SRB assay
LOX IMVI = assay: Growth inhibition of human LOX IMVI cells measured after 48 hrs by SRB assay
SK-OV-3 = assay: Growth inhibition of human SK-OV-3 cells measured after 48 hrs by SRB assay
CCRF-CEM = assay: Growth inhibition of human CCRF-CEM cells measured after 48 hrs by SRB assay
HCT-116 = assay: Growth inhibition of human HCT-116 cells measured after 48 hrs by SRB assay
MDA-MB-468 = assay: Growth inhibition of human MDA-MB-468 cells measured after 48 hrs by SRB assay
M14 = assay: Growth inhibition of human M14 cells measured after 48 hrs by SRB assay
UACC-62 = assay: Growth inhibition of human UACC-62 cells measured after 48 hrs by SRB assay
SNB-75 = assay: Growth inhibition of human SNB-75 cells measured after 48 hrs by SRB assay
Hs-578T = assay: Growth inhibition of human Hs-578T cells measured after 48 hrs by SRB assay
PC-3 = assay: Growth inhibition of human PC-3 cells measured after 48 hrs by SRB assay
UO-31 = assay: Growth inhibition of human UO-31 cells measured after 48 hrs by SRB assay
ACHN = assay: Growth inhibition of human ACHN cells measured after 48 hrs by SRB assay
A549 = assay: Growth inhibition of human A549 cells measured after 48 hrs by SRB assay
OVCAR-5 = assay: Growth inhibition of human OVCAR-5 cells measured after 48 hrs by SRB assay
SF-268 = assay: Growth inhibition of human SF-268 cells measured after 48 hrs by SRB assay
NCI-H460 = assay: Growth inhibition of human NCI-H460 cells measured after 48 hrs by SRB assay
MOLT-4 = assay: Growth inhibition of human MOLT-4 cells measured after 48 hrs by SRB assay
SK-MEL-2 = assay: Growth inhibition of human SK-MEL-2 cells measured after 48 hrs by SRB assay
NCI/ADR-RES = assay: Growth inhibition of human NCI/ADR-RES cells measured after 48 hrs by SRB assay
HOP-92 = assay: Growth inhibition of human HOP-92 cells measured after 48 hrs by SRB assay
SNB-19 = assay: Growth inhibition of human SNB-19 cells measured after 48 hrs by SRB assay
HCC 2998 = assay: Growth inhibition of human HCC 2998 cells measured after 48 hrs by SRB assay
SK-MEL-28 = assay: Growth inhibition of human SK-MEL-28 cells measured after 48 hrs by SRB assay
SR = assay: Growth inhibition of human SR cells measured after 48 hrs by SRB assay
SW-620 = assay: Growth inhibition of human SW-620 cells measured after 48 hrs by SRB assay
NCI-H522 = assay: Growth inhibition of human NCI-H522 cells measured after 48 hrs by SRB assay
786-0 = assay: Growth inhibition of human 786-0 cells measured after 48 hrs by SRB assay
KM12 = assay: Growth inhibition of human KM12 cells measured after 48 hrs by SRB assay
MDA-MB-435 = assay: Growth inhibition of human MDA-MB-435 cells measured after 48 hrs by SRB assay
SF-295 = assay: Growth inhibition of human SF-295 cells measured after 48 hrs by SRB assay
HOP-62 = assay: Growth inhibition of human HOP-62 cells measured after 48 hrs by SRB assay
HT-29 = assay: Growth inhibition of human HT-29 cells measured after 48 hrs by SRB assay
RXF 393 = assay: Growth inhibition of human RXF 393 cells measured after 48 hrs by SRB assay
MCF7 = assay: Growth inhibition of human MCF7 cells measured after 48 hrs by SRB assay
NCI-H226 = assay: Growth inhibition of human NCI-H226 cells measured after 48 hrs by SRB assay
SF-539 = assay: Growth inhibition of human SF-539 cells measured after 48 hrs by SRB assay
BT-549 = assay: Growth inhibition of human BT-549 cells measured after 48 hrs by SRB assay
NCI-H23 = assay: Growth inhibition of human NCI-H23 cells measured after 48 hrs by SRB assay
HCT-15 = assay: Growth inhibition of human HCT-15 cells measured after 48 hrs by SRB assay
OVCAR-8 = assay: Growth inhibition of human OVCAR-8 cells measured after 48 hrs by SRB assay
NCI-H322M = assay: Growth inhibition of human NCI-H322M cells measured after 48 hrs by SRB assay
U-251 = assay: Growth inhibition of human U-251 cells measured after 48 hrs by SRB assay
OVCAR-3 = assay: Growth inhibition of human OVCAR-3 cells measured after 48 hrs by SRB assay
DU-145 = assay: Growth inhibition of human DU-145 cells measured after 48 hrs by SRB assay
COLO 205 = assay: Growth inhibition of human COLO 205 cells measured after 48 hrs by SRB assay
T47D = assay: Growth inhibition of human T47D cells measured after 48 hrs by SRB assay
K562 = assay: Growth inhibition of human K562 cells measured after 48 hrs by SRB assay
SK-MEL-5 = assay: Growth inhibition of human SK-MEL-5 cells measured after 48 hrs by SRB assay
CAKI-1 = assay: Growth inhibition of human CAKI-1 cells measured after 48 hrs by SRB assay
HL-60 = assay: Growth inhibition of human HL-60 cells measured after 48 hrs by SRB assay
UACC-257 = assay: Growth inhibition of human UACC-257 cells measured after 48 hrs by SRB assay
IGROV-1 = assay: Growth inhibition of human IGROV-1 cells measured after 48 hrs by SRB assay
TK-10 = assay: Growth inhibition of human TK-10 cells measured after 48 hrs by SRB assay
A498 = assay: Growth inhibition of human A498 cells measured after 48 hrs by SRB assay

Compound: C[C@]12CC[C@H](O[C@@H]3O[C@H](CO)[C@@H](O)[C@H](O)[C@H]3O)C=C1CC[C@@H]1[C@@H]2[C@@H](O)C[C@]2(C)[C@@H](c3ccc(=O)oc3)CC[C@]12O
- GI50 (SN12C): 15 nM
- GI50 (Malme-3M): 63 nM
- GI50 (MDA-MB-231): 193 nM
- GI50 (LOX IMVI): 64 nM
- GI50 (SK-OV-3): 74 nM
- GI50 (CCRF-CEM): 16 nM
- GI50 (HCT-116): 15 nM
- GI50 (MDA-MB-468): 109 nM
- GI50 (M14): 83 nM
- GI50 (UACC-62): 7 nM
- GI50 (SNB-75): 82 nM
- GI50 (Hs-578T): 25 nM
- GI50 (PC-3): 46 nM
- GI50 (UO-31): 34 nM
- GI50 (ACHN): 10 nM
- GI50 (A549): 15 nM
- GI50 (OVCAR-5): 60 nM
- GI50 (SF-268): 18 nM
- GI50 (NCI-H460): 13 nM
- GI50 (MOLT-4): 11 nM
- GI50 (SK-MEL-2): 59 nM
- GI50 (NCI/ADR-RES): 33 nM
- GI50 (HOP-92): 66 nM
- GI50 (SNB-19): 108 nM
- GI50 (HCC 2998): 136 nM
- GI50 (SK-MEL-28): 107 nM
- GI50 (SR): 55 nM
- GI50 (SW-620): 51 nM
- GI50 (NCI-H522): 9 nM
- GI50 (786-0): 38 nM
- GI50 (KM12): 91 nM
- GI50 (MDA-MB-435): 73 nM
- GI50 (SF-295): 61 nM
- GI50 (HOP-62): 26 nM
- GI50 (HT-29): 81 nM
- GI50 (RXF 393): 20 nM
- GI50 (MCF7): 42 nM
- GI50 (NCI-H226): 47 nM
- GI50 (SF-539): 31 nM
- GI50 (BT-549): 27 nM
- GI50 (NCI-H23): 27 nM
- GI50 (HCT-15): 53 nM
- GI50 (OVCAR-8): 65 nM
- GI50 (NCI-H322M): 30 nM
- GI50 (U-251): 79 nM
- GI50 (OVCAR-3): 36 nM
- GI50 (DU-145): 31 nM
- GI50 (COLO 205): 102 nM
- GI50 (T47D): 78 nM
- GI50 (K562): 80 nM
- GI50 (SK-MEL-5): 55 nM
- GI50 (CAKI-1): 41 nM
- GI50 (HL-60): 50 nM
- GI50 (UACC-257): 93 nM
- GI50 (IGROV-1): 64 nM
- GI50 (TK-10): 31 nM
- GI50 (A498): 38 nM

Compound: CC(=O)OC[C@H]1O[C@@H](O[C@@H]2C=C3CC[C@@H]4[C@H]([C@@H](O)C[C@]5(C)[C@@H](c6ccc(=O)oc6)CC[C@]45O)[C@@]3(C)CC2)[C@H](OC(C)=O)[C@@H](OC(C)=O)[C@@H]1OC(C)=O
- GI50 (SN12C): 65 nM
- GI50 (Malme-3M): 105 nM
- GI50 (MDA-MB-231): 812 nM
- GI50 (LOX IMVI): 314 nM
- GI50 (SK-OV-3): 322 nM
- GI50 (CCRF-CEM): 110 nM
- GI50 (HCT-116): 75 nM
- GI50 (MDA-MB-468): 642 nM
- GI50 (M14): 416 nM
- GI50 (UACC-62): 155 nM
- GI50 (SNB-75): 302 nM
- GI50 (Hs-578T): 91 nM
- GI50 (PC-3): 247 nM
- GI50 (UO-31): 92 nM
- GI50 (ACHN): 56 nM
- GI50 (A549): 75 nM
- GI50 (OVCAR-5): 381 nM
- GI50 (SF-268): 109 nM
- GI50 (NCI-H460): 65 nM
- GI50 (MOLT-4): 88 nM
- GI50 (SK-MEL-2): 362 nM
- GI50 (NCI/ADR-RES): 283 nM
- GI50 (HOP-92): 286 nM
- GI50 (SNB-19): 421 nM
- GI50 (HCC 2998): 677 nM
- GI50 (SK-MEL-28): 273 nM
- GI50 (SR): 285 nM
- GI50 (SW-620): 114 nM
- GI50 (NCI-H522): 70 nM
- GI50 (786-0): 102 nM
- GI50 (KM12): 597 nM
- GI50 (MDA-MB-435): 290 nM
- GI50 (SF-295): 129 nM
- GI50 (HOP-62): 105 nM
- GI50 (HT-29): 321 nM
- GI50 (RXF 393): 41 nM
- GI50 (MCF7): 103 nM
- GI50 (NCI-H226): 264 nM
- GI50 (SF-539): 77 nM
- GI50 (BT-549): 93 nM
- GI50 (NCI-H23): 181 nM
- GI50 (HCT-15): 225 nM
- GI50 (OVCAR-8): 246 nM
- GI50 (NCI-H322M): 114 nM
- GI50 (U-251): 295 nM
- GI50 (OVCAR-3): 92 nM
- GI50 (DU-145): 109 nM
- GI50 (COLO 205): 629 nM
- GI50 (T47D): 338 nM
- GI50 (K562): 386 nM
- GI50 (SK-MEL-5): 95 nM
- GI50 (CAKI-1): 98 nM
- GI50 (HL-60): 140 nM
- GI50 (UACC-257): 376 nM
- GI50 (IGROV-1): 111 nM
- GI50 (TK-10): 128 nM
- GI50 (A498): 64 nM
